Source: ChEMBL document CHEMBL1201861, “Genomics of Drug Sensitity in Cancer screening data, Wellcome Trust Sanger Institute”

Assays:
Assay in all cases: cells
Type in all cases: functional, cell-based, Homo sapiens
[1] = tested on: RPMI-8866; conditions: Homo sapiens, RPMI-8866
Description: SANGER: Inhibition of human RPMI-8866 cell growth in a cell viability assay.

[2] = tested on: TE-6; conditions: Homo sapiens, TE-6;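 note: growth inhibition of TE-6 cells, read out with a cell viability assay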
Description: SANGER: Inhibition of human TE-6 cell growth in a cell viability assay.

[3] = tested on: KARPAS-45; conditions: Homo sapiens, KARPAS-45;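 note: inhibition of cell line growth, read out through a viability assay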
Description: SANGER: Inhibition of human KARPAS-45 cell growth in a cell viability assay.

[4] = tested on: MOLT-4; conditions: Homo sapiens, MOLT-4;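 note: growth inhibition of MOLT-4 cells, determined with a cell viability readout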
Description: SANGER: Inhibition of human MOLT-4 cell growth in a cell viability assay.

[5] = tested on: NCI-H1395; conditions: Homo sapiens, NCI-H1395;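 note: cell viability assay read-out quantifying reduced proliferation of human NCI-H1395 cells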
Description: SANGER: Inhibition of human NCI-H1395 cell growth in a cell viability assay.

[6] = tested on: QIMR-WIL; conditions: Homo sapiens, QIMR-WIL;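 note: growth inhibition of QIMR-WIL cells, read out with a cell viability assay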
Description: SANGER: Inhibition of human QIMR-WIL cell growth in a cell viability assay.

[7] = tested on: OCUB-M; conditions: Homo sapiens, OCUB-M;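 note: growth inhibition of the cancer cell line, read out through a cell viability assay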
Description: SANGER: Inhibition of human OCUB-M cell growth in a cell viability assay.

[8] = tested on: SF-539; conditions: Homo sapiens, SF-539;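 note: Read-out is a cell viability assay, with IC50 reflecting inhibition of cell growth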
Description: SANGER: Inhibition of human SF539 cell growth in a cell viability assay.

[9] = tested on: SK-MEL-1; conditions: Homo sapiens, SK-MEL-1;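 note: growth inhibition of human SK-MEL-1 cells, read out by a cell viability assay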
Description: SANGER: Inhibition of human SK-MEL-1 cell growth in a cell viability assay.

[10] = tested on: Mo; conditions: Homo sapiens, Mo
Description: SANGER: Inhibition of human Mo-T cell growth in a cell viability assay.

[11] = tested on: ES6; conditions: Homo sapiens, ES6;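 note: growth inhibition of human ES6 cells, read out with a cell viability assay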
Description: SANGER: Inhibition of human ES6 cell growth in a cell viability assay.

[12] = tested on: LS-513; conditions: Homo sapiens, LS-513
Description: SANGER: Inhibition of human LS-513 cell growth in a cell viability assay.

[13] = tested on: EW-24; conditions: Homo sapiens, EW-24;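 note: human EW-24 cancer cell line, growth inhibition read out via a cell viability assay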
Description: SANGER: Inhibition of human EW-24 cell growth in a cell viability assay.

[14] = tested on: SCH; conditions: Homo sapiens, SCH;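 note: growth inhibition of human SCH cells, read out in a cell viability assay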
Description: SANGER: Inhibition of human SCH cell growth in a cell viability assay.

[15] = tested on: KM-H2; conditions: Homo sapiens, KM-H2;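 note: growth inhibition of KM-H2 cells, read out by a cell viability assay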
Description: SANGER: Inhibition of human KM-H2 cell growth in a cell viability assay.

[16] = tested on: U-266; conditions: Homo sapiens, U-266
Description: SANGER: Inhibition of human U-266 cell growth in a cell viability assay.

[17] = tested on: RXF 393; conditions: Homo sapiens, RXF 393;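 note: growth inhibition of human RXF 393 cells, read out with a cell viability assay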
Description: SANGER: Inhibition of human RXF393 cell growth in a cell viability assay.

[18] = tested on: LB771-HNC; conditions: Homo sapiens, LB771-HNC;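 note: growth inhibition of LB771-HNC human cells, read out with a cell viability assay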
Description: SANGER: Inhibition of human LB771-HNC cell growth in a cell viability assay.

[19] = tested on: COLO-668; conditions: Homo sapiens, COLO-668
Description: SANGER: Inhibition of human COLO-668 cell growth in a cell viability assay.

[20] = tested on: RS4-11; conditions: Homo sapiens, RS4-11;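 note: growth inhibition of RS4-11 cells, read out by a cell viability assay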
Description: SANGER: Inhibition of human RS4-11 cell growth in a cell viability assay.

[21] = tested on: KNS-81-FD; conditions: Homo sapiens, KNS-81-FD;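 note: growth inhibition of KNS-81-FD cells, read out with a cell viability assay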
Description: SANGER: Inhibition of human KNS-81-FD cell growth in a cell viability assay.

[22] = tested on: ETK-1; conditions: Homo sapiens, ETK-1;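 note: growth inhibition of human ETK-1 cells, read out with a cell viability assay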
Description: SANGER: Inhibition of human ETK-1 cell growth in a cell viability assay.

[23] = tested on: MS-1; conditions: Homo sapiens, MS-1;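 note: growth inhibition of MS-1 cells, read out by cell viability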
Description: SANGER: Inhibition of human MS-1 cell growth in a cell viability assay.

[24] = tested on: DSH1; conditions: Homo sapiens, DSH1;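 note: growth inhibition of human DSH1 cells, measured with a cell viability readout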
Description: SANGER: Inhibition of human DSH1 cell growth in a cell viability assay.

[25] = tested on: COLO-829; conditions: Homo sapiens, COLO-829
Description: SANGER: Inhibition of human COLO-829 cell growth in a cell viability assay.

[26] = tested on: NCI-H1770; conditions: Homo sapiens, NCI-H1770;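 note: growth inhibition of NCI-H1770 cells determined with a viability readout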
Description: SANGER: Inhibition of human NCI-H1770 cell growth in a cell viability assay.

[27] = tested on: JVM-2; conditions: Homo sapiens, JVM-2;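 note: growth inhibition of JVM-2 cells determined by a cell viability assay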
Description: SANGER: Inhibition of human JVM-2 cell growth in a cell viability assay.

[28] = tested on: LS-1034; conditions: Homo sapiens, LS-1034
Description: SANGER: Inhibition of human LS-1034 cell growth in a cell viability assay.

[29] = tested on: CAS-1; conditions: Homo sapiens, CAS-1;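 note: growth inhibition of CAS-1 cells, measured with a cell viability assay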
Description: SANGER: Inhibition of human CAS-1 cell growth in a cell viability assay.

[30] = tested on: HCC2157; conditions: Homo sapiens, HCC2157;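 note: growth inhibition of the cancer cell line, read out as cell viability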
Description: SANGER: Inhibition of human HCC2157 cell growth in a cell viability assay.

[31] = tested on: HCE-T; conditions: Homo sapiens, HCE-T;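 note: cell viability assay read-out, reporting inhibition of HCE-T cell growth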
Description: SANGER: Inhibition of human HCE-T cell growth in a cell viability assay.

[32] = tested on: KURAMOCHI; conditions: Homo sapiens, KURAMOCHI;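 note: growth inhibition of KURAMOCHI cells, read out with a cell viability assay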
Description: SANGER: Inhibition of human KURAMOCHI cell growth in a cell viability assay.

[33] = tested on: TGBC1TKB; conditions: Homo sapiens, TGBC1TKB;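 note: growth inhibition of TGBC1TKB cells, read out by a cell viability assay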
Description: SANGER: Inhibition of human TGBC1TKB cell growth in a cell viability assay.

[34] = tested on: NCI-H1650; conditions: Homo sapiens, NCI-H1650;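 note: growth inhibition of human NCI-H1650 cells measured by a cell viability assay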
Description: SANGER: Inhibition of human NCI-H1650 cell growth in a cell viability assay.

[35] = tested on: NOMO-1; conditions: Homo sapiens, NOMO-1;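 note: growth inhibition of human NOMO-1 cells measured by a cell viability assay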
Description: SANGER: Inhibition of human NOMO-1 cell growth in a cell viability assay.

[36] = tested on: IST-MEL1; conditions: Homo sapiens, IST-MEL1;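 note: growth inhibition of the cell line, read out with a cell viability assay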
Description: SANGER: Inhibition of human IST-MEL1 cell growth in a cell viability assay.

[37] = tested on: 8-MG-BA; conditions: Homo sapiens, 8-MG-BA;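 note: growth inhibition of 8-MG-BA cells, read out with a cell viability assay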
Description: SANGER: Inhibition of human 8-MG-BA cell growth in a cell viability assay.

[38] = tested on: LU-134-A; conditions: Homo sapiens, LU-134-A
Description: SANGER: Inhibition of human LU-134-A cell growth in a cell viability assay.

[39] = tested on: BB30-HNC; conditions: Homo sapiens, BB30-HNC;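 note: growth inhibition of the cultured cell line, read out by a cell viability assay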
Description: SANGER: Inhibition of human BB30-HNC cell growth in a cell viability assay.

[40] = tested on: NOS-1; conditions: Homo sapiens, NOS-1;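 note: growth inhibition of the human NOS-1 cell line, read out with a cell viability assay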
Description: SANGER: Inhibition of human NOS-1 cell growth in a cell viability assay.

[41] = tested on: A4-Fuk; conditions: Homo sapiens, A4-Fuk;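 note: growth inhibition of A4-Fuk cells, read out by a cell viability assay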
Description: SANGER: Inhibition of human A4-Fuk cell growth in a cell viability assay.

[42] = tested on: NCI-H82; conditions: Homo sapiens, NCI-H82;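 note: growth inhibition of NCI-H82 cells, measured with a cell viability readout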
Description: SANGER: Inhibition of human NCI-H82 cell growth in a cell viability assay.

[43] = tested on: SF-268; conditions: Homo sapiens, SF-268;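 note: growth inhibition of SF-268 cells determined with a cell viability assay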
Description: SANGER: Inhibition of human SF268 cell growth in a cell viability assay.

[44] = tested on: KG-1; conditions: Homo sapiens, KG-1;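 note: growth inhibition of KG-1 cells, read out by a cell viability assay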
Description: SANGER: Inhibition of human KG-1 cell growth in a cell viability assay.

[45] = tested on: KE-37; conditions: Homo sapiens, KE-37;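 note: growth inhibition of KE-37 cells, read out with a cell viability assay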
Description: SANGER: Inhibition of human KE-37 cell growth in a cell viability assay.

[46] = tested on: NB10; conditions: Homo sapiens, NB10;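 note: growth inhibition of NB10 cells, read out by a cell viability assay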
Description: SANGER: Inhibition of human NB10 cell growth in a cell viability assay.

[47] = tested on: HCE-4; conditions: Homo sapiens, HCE-4;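 note: cell viability assay measuring inhibition of growth in the human HCE-4 cell line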
Description: SANGER: Inhibition of human HCE-4 cell growth in a cell viability assay.

[48] = tested on: EW-13; conditions: Homo sapiens, EW-13;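 note: growth inhibition of EW-13 cells, read out with a cell viability assay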
Description: SANGER: Inhibition of human EW-13 cell growth in a cell viability assay.

[49] = tested on: BB49-HNC; conditions: Homo sapiens, BB49-HNC;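 note: cell viability assay read-out, reported as inhibition of BB49-HNC cell growth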
Description: SANGER: Inhibition of human BB49-HNC cell growth in a cell viability assay.

SMILES: COc1cc2ncn(-c3cc(OCc4ccccc4C(F)(F)F)c(C(N)=O)s3)c2cc1OC [GW843682X]
- IC50 [1]: > 256 nM
- IC50 [2]: 17.9 nM
- IC50 [3]: 6.13 nM
- IC50 [4]: 26.9 nM
- IC50 [5]: > 256 nM
- IC50 [6]: 42.3 nM
- IC50 [7]: 12.2 nM
- IC50 [8]: > 256 nM
- IC50 [9]: > 256 nM
- IC50 [10]: > 256 nM
- IC50 [11]: 6.19 nM
- IC50 [12]: 212 nM
- IC50 [13]: > 256 nM
- IC50 [14]: > 256 nM
- IC50 [15]: 20.5 nM
- IC50 [16]: 69.8 nM
- IC50 [17]: 105 nM
- IC50 [18]: 60 nM
- IC50 [19]: > 256 nM
- IC50 [20]: 12.8 nM
- IC50 [21]: > 256 nM
- IC50 [22]: 17.3 nM
- IC50 [23]: 16 nM
- IC50 [24]: > 256 nM
- IC50 [25]: > 256 nM
- IC50 [26]: > 0.256 µM
- IC50 [27]: > 256 nM
- IC50 [28]: 59.7 nM
- IC50 [29]: > 0.256 µM
- IC50 [30]: > 0.256 µM
- IC50 [31]: 217 nM
- IC50 [32]: 50.1 nM
- IC50 [33]: 33.6 nM
- IC50 [34]: > 256 nM
- IC50 [35]: > 256 nM
- IC50 [36]: 28.8 nM
- IC50 [37]: 19.4 nM
- IC50 [38]: 119 nM
- IC50 [39]: 34.1 nM
- IC50 [40]: 16.6 nM
- IC50 [41]: 20.8 nM
- IC50 [42]: 15.2 nM
- IC50 [43]: 83 nM
- IC50 [44]: > 256 nM
- IC50 [45]: 4.77 nM
- IC50 [46]: > 256 nM
- IC50 [47]: 13.9 nM
- IC50 [48]: > 256 nM
- IC50 [49]: > 256 nM

SMILES: O=C(O)c1ccc(-c2c[nH]c3ncc(-c4ccccc4)cc23)cc1C1CCCC1 [GSK-650394]
- IC50 [1]: > 16000 nM
- IC50 [2]: > 16000 nM
- IC50 [3]: > 16000 nM
- IC50 [4]: > 16000 nM
- IC50 [5]: > 16000 nM
- IC50 [6]: 8800 nM
- IC50 [7]: 2790 nM
- IC50 [8]: > 16000 nM
- IC50 [9]: > 16000 nM
- IC50 [10]: > 16000 nM
- IC50 [11]: 8670 nM
- IC50 [12]: > 16000 nM
- IC50 [13]: > 16000 nM
- IC50 [14]: > 16000 nM
- IC50 [15]: > 16000 nM
- IC50 [16]: > 16000 nM
- IC50 [17]: > 16000 nM
- IC50 [18]: > 16000 nM
- IC50 [19]: > 16000 nM
- IC50 [20]: 8960 nM
- IC50 [21]: > 16000 nM
- IC50 [22]: 10100 nM
- IC50 [23]: > 16000 nM
- IC50 [24]: > 16000 nM
- IC50 [25]: > 16000 nM
- IC50 [26]: 10 µM
- IC50 [27]: > 16000 nM
- IC50 [28]: > 16000 nM
- IC50 [29]: 11 µM
- IC50 [30]: 13.5 µM
- IC50 [31]: > 16000 nM
- IC50 [32]: > 16000 nM
- IC50 [33]: > 16000 nM
- IC50 [34]: > 16000 nM
- IC50 [35]: > 16000 nM
- IC50 [36]: > 16000 nM
- IC50 [37]: 15600 nM
- IC50 [38]: 6550 nM
- IC50 [39]: 2330 nM
- IC50 [40]: > 16000 nM
- IC50 [41]: 14900 nM
- IC50 [42]: > 16000 nM
- IC50 [43]: > 16000 nM
- IC50 [44]: > 16000 nM
- IC50 [45]: > 16000 nM
- IC50 [46]: > 16000 nM
- IC50 [47]: 7590 nM
- IC50 [48]: 3020 nM
- IC50 [49]: > 16000 nM

SMILES: CC(=O)O[C@H]1C(=O)[C@@]2(C)[C@H]([C@H](OC(=O)c3ccccc3)[C@]3(O)C[C@H](OC(=O)[C@H](O)[C@@H](NC(=O)c4ccccc4)c4ccccc4)C(C)=C1C3(C)C)[C@]1(OC(C)=O)CO[C@@H]1C[C@@H]2O [PACLITAXEL]
- IC50 [1]: 57.1 nM
- IC50 [2]: 5.7 nM
- IC50 [3]: 12.7 nM
- IC50 [4]: 1.49 nM
- IC50 [5]: > 102 nM
- IC50 [6]: 10.3 nM
- IC50 [7]: 6.62 nM
- IC50 [8]: 24 nM
- IC50 [9]: > 102 nM
- IC50 [10]: > 102 nM
- IC50 [11]: 95.9 nM
- IC50 [12]: > 102 nM
- IC50 [13]: 64.8 nM
- IC50 [14]: > 102 nM
- IC50 [15]: 33.1 nM
- IC50 [16]: > 102 nM
- IC50 [17]: 12.6 nM
- IC50 [18]: 25.3 nM
- IC50 [19]: > 102 nM
- IC50 [20]: 8.36 nM
- IC50 [21]: > 102 nM
- IC50 [22]: 1.52 nM
- IC50 [23]: > 102 nM
- IC50 [24]: > 102 nM
- IC50 [25]: > 102 nM
- IC50 [26]: > 0.102 µM
- IC50 [27]: > 102 nM
- IC50 [28]: 80.4 nM
- IC50 [29]: > 0.102 µM
- IC50 [30]: > 0.102 µM
- IC50 [31]: 20.9 nM
- IC50 [32]: 7.48 nM
- IC50 [33]: 17.5 nM
- IC50 [34]: > 102 nM
- IC50 [35]: 92.8 nM
- IC50 [36]: 26.2 nM
- IC50 [37]: 7.96 nM
- IC50 [38]: 47.7 nM
- IC50 [39]: 3.14 nM
- IC50 [40]: 6.5 nM
- IC50 [41]: 6.11 nM
- IC50 [42]: 43.1 nM
- IC50 [43]: 11.5 nM
- IC50 [44]: > 102 nM
- IC50 [45]: 12.3 nM
- IC50 [46]: > 102 nM
- IC50 [47]: 7.67 nM
- IC50 [48]: > 102 nM
- IC50 [49]: > 102 nM
